Assay results published in patent US9187490B2, “Dimeric IAP inhibitors” (TetraLogic Pharmaceuticals Corporation, priority 2005, dated 2015).

Assays:
XIAP-BIR3 = biological target: T1, XIAP-BIR3 (Homo sapiens, UniProt P98170); test: XIAP BIR-3 fluorescence polarization binding assay; conditions: 5 nM AbuRPF-K(5-Fam)-NH2, 40 nM XIAP-BIR3, 15 min RT, pH 7.5; read-out: KD Range
T1 construct: 40 nM of XIAP-BIR3 for 15 min at RT
Protocol: Following incubation, the polarization values (mP) were measured on a Victor^2V using a 485 nm excitation filter and a 520 nm emission filter. IC50 values were determined from the plot using nonlinear least-squares analysis using GraphPad Prism.

MDA-MB-231 cells [1] = test: Colony formation assay with and without TRAIL; format: cell-based; conditions: MDA-MB-231, in combination with TRAIL
Protocol: The ability of cells to form viable colonies was analyzed by adding various concentrations of the compound in the presence and absence of 0.4 ng/ml of TRAIL. Briefly, cells are seeded at 100 cells per well in a 12 well format in 2 ml of growth medium. The medium is removed after twenty-four hours and replaced with Smac mimetics at various concentrations in growth medium with 1% DMSO. After 72 hours on test, the concentrations are removed and replaced with 2 ml. of growth medium. The plates are returned to the incubator for 7-10 days at which time the colonies have multiplied to at least 10 cells per colony which can be counted by eye. The plates are stained with a 0.01% crystal violet solution (wt:vol. in H2O) for thirty minutes. The plates are washed with tap water to remove any residual crystal violet, dried and the colonies are counted. Inhibition data were analyzed using the sigmoidal dose-response (variable slope) equation in GraphPad Prism (GraphPad Software, San Diego, Calif.). The 50% inhibitory concentration (EC50) was the drug concentration that decreased the […] by 50% relative to control samples without drug.

[2] = Half life after single intravenous dose in rat; conditions: in vivo, single IV dose 1 mg/kg, FIG. 2, read-out: terminal elimination half life (converted)
Protocol: The IV dose for each Smac mimetic was 1 mg/kg.

MDA-MB-231 cells [3] = test: Cell proliferation (MTT assay) with and without TRAIL; format: cell-based; conditions: MDA-MB-231, MTT, FIG. 4
T98G cells = test: Cytotoxicity synergy study with topoisomerase inhibitors; format: cell-based
Description: The highest amount of synergy is 50-60% more cell death than would be expected by adding together the cytotoxicity of each compound alone. […] The total synergistic volume was 457, with the greatest synergism being about 30%-40% more cell death than would be expected by adding together the individual Smac and topotecan cytotoxicities, between Entry 1 and a topoismerase inhibitor, such as topotecan.
To further assess potential drug-drug interactions a matrix of the permutations of two-fold serial dilutions of each drug and a Snac mimetic were tested as well as the activity of each compound alone using a program called MacSynergy II (Prichard, M. N., K. R. Aseltine, and C. Shipman, Jr. 1993. MacSynergy II. User's manual. Univ. of Michigan, Ann Arbor). The synergy with paclitaxel and the Smac peptidomimetic Entry 122 in OVCAR3 cells was tested. The highest amount of synergy detected is 10-20% which indicates greater cell death than would be expected by adding together the cytotoxicity of either compound alone.

[4] = with topotecan and camptothecin

T1 sequence (P98170 241-356 limits assumed): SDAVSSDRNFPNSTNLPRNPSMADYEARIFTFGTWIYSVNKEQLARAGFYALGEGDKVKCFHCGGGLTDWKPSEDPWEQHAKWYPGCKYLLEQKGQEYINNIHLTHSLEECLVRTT

## CC(N)C(=O)NC(C(=O)N1CCCC1Cc1c(-c2ccc(-c3oc4ccccc4c3CC3CCCN3C(=O)C(NC(=O)C(C)N)C(C)C)cc2)oc2ccccc12)C(C)C (single isomer, unassigned) [Entry 1]
XIAP-BIR3
  Kd: < 100 nM
MDA-MB-231 cells [1]
  increase in the cell killing as detected by loss in colony formation: 100 fold
[2]
  half-life: ~6 h
MDA-MB-231 cells [3]; in combination with TRAIL
  increase in the antiproliferative effect in combination with TRAIL: 1000 fold
MDA-MB-231 cells [3]; without TRAIL
  antiproliferative effect, Smac mimetic alone: resistant
T98G cells; with a topoisomerase inhibitor such as topotecan
  total synergistic volume: 457
T98G cells; with topotecan
  greatest synergism, more cell death than expected by adding the individual cytotoxicities: 30%-40%
T98G cells; [4]
  highest amount of synergy, more cell death than expected by adding the cytotoxicity of each compound alone: 50-60%
  synergy with topoisomerase inhibitors: act synergistically
